Laboratory results from patent publication US20230049952A1, “METHODS AND COMPOUNDS FOR RESTORING MUTANT P53 FUNCTION” (PMV Pharmaceuticals, Inc., priority 2020, published 2023).

Tested on: p53 signaling pathway in MT373 tumors
Assay: MT373 syngeneic sarcoma model: mouse p53 signaling pathway profiling panel
Type: in vivo
Conditions: for Actb* mRNA (housekeeping or reference gene), Fold Increase Over Vehicle Control or Percent Reduction Compared to Vehicle Control (%) / B2m* mRNA (housekeeping or reference gene), Fold Increase Over Vehicle Control or Percent Reduction Compared to Vehicle Control (%) / Gapdh* mRNA (housekeeping or reference gene), Fold Increase Over Vehicle Control or Percent Reduction Compared to Vehicle Control (%) / Gusb* mRNA (housekeeping or reference gene), Fold Increase Over Vehicle Control or Percent Reduction Compared to Vehicle Control (%) / Hsp90ab1* mRNA (housekeeping or reference gene), Fold Increase Over Vehicle Control or Percent Reduction Compared to Vehicle Control (%) / MGDC* (housekeeping or reference gene), Fold Increase Over Vehicle Control or Percent Reduction Compared to Vehicle Control (%) / Trp63 mRNA, Fold Increase Over Vehicle Control or Percent Reduction Compared to Vehicle Control (%) / Trp73 mRNA, Fold Increase Over Vehicle Control or Percent Reduction Compared to Vehicle Control (%) / Wt1 mRNA, Fold Increase Over Vehicle Control or Percent Reduction Compared to Vehicle Control (%) / Zmat3 mRNA, Fold Increase Over Vehicle Control or Percent Reduction Compared to Vehicle Control (%): MT373 tumors

CCn1c(C#CCNc2ccccc2)cc2cc(CNC3CCN(C)CC3)ccc21 [Compound 1, 1-Anilino-3-{1-ethyl-5-[(1-methyl-4-piperidylamino)methyl]-1H-indol-2-yl}-2-propyne]
Il6 mRNA change (150 mg/kg BID×1, 24 h): 85.31%
Mdm2 mRNA increase (150 mg/kg BID×1, 24 h): 5.96 fold
Sesn2 mRNA increase (150 mg/kg BID×1, 24 h): 2.45 fold
Zmat3 mRNA increase (150 mg/kg BID×1, 24 h): 6.17 fold
Actb* mRNA (housekeeping or reference gene), Fold Increase Over Vehicle Control or Percent Reduction Compared to Vehicle Control (%) (75 mg/kg BIDx1, 8 h): 1.60 fold or %
B2m* mRNA (housekeeping or reference gene), Fold Increase Over Vehicle Control or Percent Reduction Compared to Vehicle Control (%) (75 mg/kg BIDx1, 8 h): 1.16 fold or %
Gapdh* mRNA (housekeeping or reference gene), Fold Increase Over Vehicle Control or Percent Reduction Compared to Vehicle Control (%) (75 mg/kg BIDx1, 8 h): 11.24 fold or %
Gusb* mRNA (housekeeping or reference gene), Fold Increase Over Vehicle Control or Percent Reduction Compared to Vehicle Control (%) (75 mg/kg BIDx1, 8 h): 1.12 fold or %
Hsp90ab1* mRNA (housekeeping or reference gene), Fold Increase Over Vehicle Control or Percent Reduction Compared to Vehicle Control (%) (75 mg/kg BIDx1, 8 h): 10.06 fold or %
MGDC* (housekeeping or reference gene), Fold Increase Over Vehicle Control or Percent Reduction Compared to Vehicle Control (%) (75 mg/kg BIDx1, 8 h): 1.79 fold or %
Trp63 mRNA, Fold Increase Over Vehicle Control or Percent Reduction Compared to Vehicle Control (%) (75 mg/kg BIDx1, 8 h): 3.58 fold or %
Trp73 mRNA, Fold Increase Over Vehicle Control or Percent Reduction Compared to Vehicle Control (%) (75 mg/kg BIDx1, 8 h): 16.09 fold or %
Wt1 mRNA, Fold Increase Over Vehicle Control or Percent Reduction Compared to Vehicle Control (%) (75 mg/kg BIDx1, 8 h): 28.78 fold or %
Zmat3 mRNA, Fold Increase Over Vehicle Control or Percent Reduction Compared to Vehicle Control (%) (75 mg/kg BIDx1, 8 h): 6.25 fold or %
Actb* mRNA (housekeeping or reference gene), Fold Increase Over Vehicle Control or Percent Reduction Compared to Vehicle Control (%) (75 mg/kg BIDx1, 24 h): 1.08 fold or %
B2m* mRNA (housekeeping or reference gene), Fold Increase Over Vehicle Control or Percent Reduction Compared to Vehicle Control (%) (75 mg/kg BIDx1, 24 h): 1.14 fold or %
Gapdh* mRNA (housekeeping or reference gene), Fold Increase Over Vehicle Control or Percent Reduction Compared to Vehicle Control (%) (75 mg/kg BIDx1, 24 h): 13.68 fold or %
Gusb* mRNA (housekeeping or reference gene), Fold Increase Over Vehicle Control or Percent Reduction Compared to Vehicle Control (%) (75 mg/kg BIDx1, 24 h): 1.25 fold or %
Hsp90ab1* mRNA (housekeeping or reference gene), Fold Increase Over Vehicle Control or Percent Reduction Compared to Vehicle Control (%) (75 mg/kg BIDx1, 24 h): 17.39 fold or %
MGDC* (housekeeping or reference gene), Fold Increase Over Vehicle Control or Percent Reduction Compared to Vehicle Control (%) (75 mg/kg BIDx1, 24 h): 1.27 fold or %
Trp63 mRNA, Fold Increase Over Vehicle Control or Percent Reduction Compared to Vehicle Control (%) (75 mg/kg BIDx1, 24 h): 1.58 fold or %
Trp73 mRNA, Fold Increase Over Vehicle Control or Percent Reduction Compared to Vehicle Control (%) (75 mg/kg BIDx1, 24 h): 1.01 fold or %
Wt1 mRNA, Fold Increase Over Vehicle Control or Percent Reduction Compared to Vehicle Control (%) (75 mg/kg BIDx1, 24 h): 21.25 fold or %
Zmat3 mRNA, Fold Increase Over Vehicle Control or Percent Reduction Compared to Vehicle Control (%) (75 mg/kg BIDx1, 24 h): 4.14 fold
Actb* mRNA (housekeeping or reference gene), Fold Increase Over Vehicle Control or Percent Reduction Compared to Vehicle Control (%) (75 mg/kg BIDx1, 48 h): 1.07 fold or %
B2m* mRNA (housekeeping or reference gene), Fold Increase Over Vehicle Control or Percent Reduction Compared to Vehicle Control (%) (75 mg/kg BIDx1, 48 h): 1.27 fold or %
Gapdh* mRNA (housekeeping or reference gene), Fold Increase Over Vehicle Control or Percent Reduction Compared to Vehicle Control (%) (75 mg/kg BIDx1, 48 h): 34.54 fold or %
Gusb* mRNA (housekeeping or reference gene), Fold Increase Over Vehicle Control or Percent Reduction Compared to Vehicle Control (%) (75 mg/kg BIDx1, 48 h): 1.31 fold or %
Hsp90ab1* mRNA (housekeeping or reference gene), Fold Increase Over Vehicle Control or Percent Reduction Compared to Vehicle Control (%) (75 mg/kg BIDx1, 48 h): 12.45 fold or %
MGDC* (housekeeping or reference gene), Fold Increase Over Vehicle Control or Percent Reduction Compared to Vehicle Control (%) (75 mg/kg BIDx1, 48 h): 1.78 fold or %
Trp63 mRNA, Fold Increase Over Vehicle Control or Percent Reduction Compared to Vehicle Control (%) (75 mg/kg BIDx1, 48 h): 2.65 fold or %
Trp73 mRNA, Fold Increase Over Vehicle Control or Percent Reduction Compared to Vehicle Control (%) (75 mg/kg BIDx1, 48 h): 3.40 fold or %
Wt1 mRNA, Fold Increase Over Vehicle Control or Percent Reduction Compared to Vehicle Control (%) (75 mg/kg BIDx1, 48 h): 21.51 fold or %
Zmat3 mRNA, Fold Increase Over Vehicle Control or Percent Reduction Compared to Vehicle Control (%) (75 mg/kg BIDx1, 48 h): 1.02 fold or %
Actb* mRNA (housekeeping or reference gene), Fold Increase Over Vehicle Control or Percent Reduction Compared to Vehicle Control (%) (75 mg/kg BIDx1, 72 h): 1.06 fold or %
B2m* mRNA (housekeeping or reference gene), Fold Increase Over Vehicle Control or Percent Reduction Compared to Vehicle Control (%) (75 mg/kg BIDx1, 72 h): 1.11 fold or %
Gapdh* mRNA (housekeeping or reference gene), Fold Increase Over Vehicle Control or Percent Reduction Compared to Vehicle Control (%) (75 mg/kg BIDx1, 72 h): 14.41 fold or %
Gusb* mRNA (housekeeping or reference gene), Fold Increase Over Vehicle Control or Percent Reduction Compared to Vehicle Control (%) (75 mg/kg BIDx1, 72 h): 1.11 fold or %
Hsp90ab1* mRNA (housekeeping or reference gene), Fold Increase Over Vehicle Control or Percent Reduction Compared to Vehicle Control (%) (75 mg/kg BIDx1, 72 h): 7.83 fold or %
MGDC* (housekeeping or reference gene), Fold Increase Over Vehicle Control or Percent Reduction Compared to Vehicle Control (%) (75 mg/kg BIDx1, 72 h): 1.36 fold or %
Trp63 mRNA, Fold Increase Over Vehicle Control or Percent Reduction Compared to Vehicle Control (%) (75 mg/kg BIDx1, 72 h): 1.62 fold or %
Trp73 mRNA, Fold Increase Over Vehicle Control or Percent Reduction Compared to Vehicle Control (%) (75 mg/kg BIDx1, 72 h): 1.00 fold or %
